From ChEMBL document CHEMBL1240475, “Design and synthesis of novel isoxazole-based HDAC inhibitors” (Eur J Med Chem, 2010)

What was measured:
Histone deacetylase 1 = Histone deacetylase 1 (Homo sapiens, UniProt Q13547); experiment: Inhibition of HDAC1
Histone deacetylase 2 = Histone deacetylase 2 (Homo sapiens, UniProt Q92769)
Histone deacetylase 3 = Histone deacetylase 3 (Homo sapiens, UniProt O15379); experiment: Inhibition of HDAC3
[1] = target: T1, Protein deacetylase HDAC6 (Homo sapiens, UniProt Q9UBN7); experiment: Inhibition of HDAC6
T1 sequence (Q9UBN7 whole entry): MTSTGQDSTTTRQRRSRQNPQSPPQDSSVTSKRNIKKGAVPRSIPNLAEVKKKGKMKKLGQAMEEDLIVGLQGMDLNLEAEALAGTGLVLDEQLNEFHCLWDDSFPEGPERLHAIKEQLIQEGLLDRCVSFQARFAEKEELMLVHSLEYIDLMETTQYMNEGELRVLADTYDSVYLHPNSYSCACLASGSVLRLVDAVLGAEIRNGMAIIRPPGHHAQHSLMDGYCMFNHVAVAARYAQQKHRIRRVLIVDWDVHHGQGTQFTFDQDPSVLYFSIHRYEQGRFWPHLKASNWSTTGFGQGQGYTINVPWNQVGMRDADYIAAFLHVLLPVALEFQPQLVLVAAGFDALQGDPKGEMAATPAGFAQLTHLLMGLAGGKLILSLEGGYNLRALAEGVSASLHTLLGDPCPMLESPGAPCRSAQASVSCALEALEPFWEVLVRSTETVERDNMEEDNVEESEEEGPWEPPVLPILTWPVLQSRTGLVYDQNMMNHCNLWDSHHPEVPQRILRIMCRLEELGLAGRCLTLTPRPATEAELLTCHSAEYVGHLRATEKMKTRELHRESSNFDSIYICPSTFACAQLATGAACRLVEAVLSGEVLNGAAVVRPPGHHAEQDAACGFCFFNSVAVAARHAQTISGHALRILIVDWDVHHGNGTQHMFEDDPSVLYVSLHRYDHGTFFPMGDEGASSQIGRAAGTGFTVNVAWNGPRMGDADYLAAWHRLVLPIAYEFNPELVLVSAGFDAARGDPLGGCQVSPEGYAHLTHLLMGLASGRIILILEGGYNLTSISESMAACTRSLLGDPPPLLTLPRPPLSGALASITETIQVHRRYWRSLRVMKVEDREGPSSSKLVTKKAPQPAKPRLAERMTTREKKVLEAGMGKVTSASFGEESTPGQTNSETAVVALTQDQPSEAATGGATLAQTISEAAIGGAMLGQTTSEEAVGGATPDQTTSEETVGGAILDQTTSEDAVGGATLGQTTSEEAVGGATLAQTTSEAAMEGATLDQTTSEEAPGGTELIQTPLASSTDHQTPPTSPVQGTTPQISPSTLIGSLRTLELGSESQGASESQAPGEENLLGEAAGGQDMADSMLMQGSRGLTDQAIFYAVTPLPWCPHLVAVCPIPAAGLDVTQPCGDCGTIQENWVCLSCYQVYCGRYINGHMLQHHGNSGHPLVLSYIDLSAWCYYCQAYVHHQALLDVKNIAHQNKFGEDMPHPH

[2] = target: T2, Polyamine deacetylase HDAC10 (Homo sapiens, UniProt Q969S8); experiment: Inhibition of HDAC10
T2 sequence (Q969S8 whole entry): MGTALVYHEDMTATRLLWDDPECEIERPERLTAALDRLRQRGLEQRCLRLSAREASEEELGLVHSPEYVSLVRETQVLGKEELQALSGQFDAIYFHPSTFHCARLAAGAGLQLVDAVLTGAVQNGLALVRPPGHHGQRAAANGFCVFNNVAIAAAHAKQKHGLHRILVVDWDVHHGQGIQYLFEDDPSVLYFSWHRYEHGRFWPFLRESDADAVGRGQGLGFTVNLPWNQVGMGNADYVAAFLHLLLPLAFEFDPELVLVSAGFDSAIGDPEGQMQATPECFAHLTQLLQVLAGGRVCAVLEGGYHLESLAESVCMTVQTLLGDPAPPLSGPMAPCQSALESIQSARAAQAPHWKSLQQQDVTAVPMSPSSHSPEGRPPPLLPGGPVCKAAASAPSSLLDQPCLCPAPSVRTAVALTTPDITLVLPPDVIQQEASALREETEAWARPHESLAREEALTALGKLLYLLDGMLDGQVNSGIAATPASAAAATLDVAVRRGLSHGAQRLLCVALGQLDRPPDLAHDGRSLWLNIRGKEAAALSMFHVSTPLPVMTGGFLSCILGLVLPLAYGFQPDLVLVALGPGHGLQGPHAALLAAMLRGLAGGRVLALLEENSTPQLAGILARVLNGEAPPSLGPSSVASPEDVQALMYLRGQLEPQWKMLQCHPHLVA

[3] = target: T3, Histone deacetylase (Homo sapiens) (UniProt Q13547+O15379+Q9UBN7+Q92769+Q9UQL6+Q8WUI4+Q9BY41+Q96DB2+P56524+Q9UKV0+Q969S8); conditions: HeLa, at 1 µM
Description: Inhibition of HDAC in human HeLa cells at 1 uM after 15 mins

[4] = target: T3, Histone deacetylase (Homo sapiens); conditions: HeLa, at 0.1 µM
Description: Inhibition of HDAC in human HeLa cells at 0.1 uM after 15 mins

[5] = target: T3, Histone deacetylase (Homo sapiens); conditions: HeLa, at 10 µM
Description: Inhibition of HDAC in human HeLa cells at 10 uM after 15 mins

Histone deacetylase 1, sequence (Q13547 whole entry): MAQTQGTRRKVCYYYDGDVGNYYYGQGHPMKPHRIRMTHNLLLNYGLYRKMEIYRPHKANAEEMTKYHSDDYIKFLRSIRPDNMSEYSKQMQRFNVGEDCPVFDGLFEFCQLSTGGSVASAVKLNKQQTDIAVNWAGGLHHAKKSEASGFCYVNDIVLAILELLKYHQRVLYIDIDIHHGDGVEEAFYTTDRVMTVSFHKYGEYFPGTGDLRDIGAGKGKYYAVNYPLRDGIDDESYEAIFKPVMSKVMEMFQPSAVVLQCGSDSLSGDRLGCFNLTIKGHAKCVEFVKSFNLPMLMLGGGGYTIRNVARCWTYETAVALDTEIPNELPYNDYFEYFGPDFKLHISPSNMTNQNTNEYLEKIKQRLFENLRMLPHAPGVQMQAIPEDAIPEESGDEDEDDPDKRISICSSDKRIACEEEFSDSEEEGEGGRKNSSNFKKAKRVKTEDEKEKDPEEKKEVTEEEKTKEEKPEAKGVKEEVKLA
Histone deacetylase 2, sequence (Q92769 whole entry): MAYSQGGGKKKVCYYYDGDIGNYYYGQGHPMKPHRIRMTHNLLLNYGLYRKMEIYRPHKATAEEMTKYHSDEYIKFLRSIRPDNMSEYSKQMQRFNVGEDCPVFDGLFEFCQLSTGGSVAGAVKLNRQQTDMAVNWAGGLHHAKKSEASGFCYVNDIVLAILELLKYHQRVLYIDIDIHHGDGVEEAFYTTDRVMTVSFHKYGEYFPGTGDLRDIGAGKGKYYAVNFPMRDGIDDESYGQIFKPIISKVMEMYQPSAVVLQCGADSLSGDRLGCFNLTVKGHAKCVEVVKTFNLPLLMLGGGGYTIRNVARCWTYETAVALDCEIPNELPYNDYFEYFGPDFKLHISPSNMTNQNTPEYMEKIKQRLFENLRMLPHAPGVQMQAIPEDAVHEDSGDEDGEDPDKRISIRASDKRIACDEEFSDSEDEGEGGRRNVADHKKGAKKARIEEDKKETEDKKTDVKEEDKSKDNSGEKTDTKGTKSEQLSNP
Histone deacetylase 3, sequence (O15379 whole entry): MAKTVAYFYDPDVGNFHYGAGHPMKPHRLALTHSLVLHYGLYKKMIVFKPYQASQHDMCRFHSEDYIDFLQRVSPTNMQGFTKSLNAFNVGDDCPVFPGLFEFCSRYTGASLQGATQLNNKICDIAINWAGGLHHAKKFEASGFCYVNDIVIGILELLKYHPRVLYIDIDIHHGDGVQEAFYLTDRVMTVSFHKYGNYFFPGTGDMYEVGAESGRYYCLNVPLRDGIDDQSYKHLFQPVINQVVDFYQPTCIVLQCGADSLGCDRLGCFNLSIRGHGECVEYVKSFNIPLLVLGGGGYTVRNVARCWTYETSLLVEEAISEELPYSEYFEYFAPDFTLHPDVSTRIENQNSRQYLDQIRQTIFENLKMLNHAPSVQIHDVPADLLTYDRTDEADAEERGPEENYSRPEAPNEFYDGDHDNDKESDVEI

IC50 (Histone deacetylase 1) [µM] | IC50 (Histone deacetylase 2) [µM] | IC50 (Histone deacetylase 3) [µM] | IC50 [1] [µM] | IC50 [2] [µM] | inhibition [3] [%] | inhibition [4] [%] | inhibition [5] [%] | Compound
4.95 | 18.9 | 26.7 | 0.43 | 9.05 | 26 | 1.5 | 78.5 | O=C(CCCCc1cc(C(=O)NO)no1)Nc1ccccc1
– | – | – | – | – | 23.8 | 4.5 | 78.5 | O=C(CCCc1cc(C(=O)NO)no1)Nc1ccccc1
– | – | – | – | – | 0 | 4.5 | 0 | Nc1cc(CCCCC(=O)Nc2ccccc2)on1
– | – | – | – | – | 0 | 0 | 8 | NNC(=O)c1cc(CCCCC(=O)Nc2ccccc2)on1
– | – | – | – | – | 0 | 0 | 0 | O=C(CCCCc1cc(CO)no1)Nc1ccccc1
– | – | – | – | – | 0 | 0 | 0.5 | O=C(CCCCc1cc(C(=O)O)no1)Nc1ccccc1

Second part, the compound before the results:

Compound | IC50 (Histone deacetylase 1) [µM] | IC50 (Histone deacetylase 2) [µM] | IC50 (Histone deacetylase 3) [µM] | IC50 [1] [µM] | IC50 [2] [µM] | inhibition [3] [%] | inhibition [4] [%] | inhibition [5] [%]
O=C(CCCCc1cc(Cc2nn[nH]n2)no1)Nc1ccccc1 | – | – | – | – | – | 0 | 0 | 5
O=C(CCCCc1cc(CS)no1)Nc1ccccc1 | – | – | – | – | – | 22 | 4.5 | 80
O=C(CCCCc1cc(/C=N/O)no1)Nc1ccccc1 | – | – | – | – | – | 0.75 | 0 | 7.5
Nc1ccccc1-c1cc(CCCCC(=O)Nc2ccccc2)on1 | – | – | – | – | – | 0 | 0 | 0.5
O=C(CCCCC1CC(C(=O)NO)=NO1)Nc1ccccc1 (centres undefined) | 17.7 | 36.2 | 28.1 | 0.76 | 23.9 | 16.8 | 4 | 77
O=C(CCCCc1cc(-c2ccccc2O)no1)Nc1ccccc1 | – | – | – | – | – | 0 | 0 | 0
O=C(CCCC1CC(C(=O)NO)=NO1)Nc1ccccc1 (centres undefined) | – | – | – | – | – | 9.75 | 3.5 | 56
